The values below come from patent US7285687B2 (priority 2002, dated 2007).

As a reminder, the Ki is a dissociation constant, usually derived from enzyme kinetics or from competition with a known ligand. A word on the ED50: it is the dose at which the effect has come halfway, by size or by number of responders.

Some results are limits rather than exact numbers.

In assay [1] the target is T1, CB1 receptor (Rattus norvegicus, UniProt P20272).
T1 construct: whole brain was homogenized and centrifuged; from tissue; host or cells: whole brain of male Sprague-Dawley rats, P2 membrane fraction
T1 sequence (P20272 whole entry): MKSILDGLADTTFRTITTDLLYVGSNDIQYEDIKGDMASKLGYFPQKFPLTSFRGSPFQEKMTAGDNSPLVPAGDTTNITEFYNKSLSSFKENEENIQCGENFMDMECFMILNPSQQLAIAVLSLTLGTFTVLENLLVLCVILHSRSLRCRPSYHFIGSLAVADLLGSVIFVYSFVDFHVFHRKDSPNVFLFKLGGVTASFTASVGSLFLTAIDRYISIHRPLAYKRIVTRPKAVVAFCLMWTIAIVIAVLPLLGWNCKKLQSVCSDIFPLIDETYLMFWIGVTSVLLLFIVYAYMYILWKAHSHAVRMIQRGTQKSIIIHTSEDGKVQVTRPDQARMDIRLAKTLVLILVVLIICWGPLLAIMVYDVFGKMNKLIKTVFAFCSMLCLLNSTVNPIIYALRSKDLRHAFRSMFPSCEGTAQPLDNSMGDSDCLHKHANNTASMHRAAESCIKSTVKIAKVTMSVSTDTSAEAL
The experiment in a line: CB1 binding procedure, displacement of [3H]CP 55,940 from rat whole-brain P2 membranes. The note with it: for Ki: Table 6, read-out: CB1 KI. On the procedure:
(§1) Male ICR mice (25-32 g), obtained from Harlan (Dublin, Va.), were housed in groups of five. All animals were kept in a temperature-controlled (20-22° C.) environment with a 12-hour light-dark cycle (lights on at 7 a.m.). Separate mice were used for testing each drug dose in the in vivo behavioral procedures. Brain tissue for binding studies was obtained from male Sprague-Dawley rats (150-200 g) purchased from Harlan Laboratories (Dublin, Va.).
The methods used for tissue preparation and binding have been described previously (Compton et al., 1993) and are similar to those described by Devane et al. (1988). All assays, as described briefly below, were performed in triplicate, and the results represent the combined data from three to six individual experiments.
Following decapitation and rapid removal of the brain, whole brain was homogenized and centrifuged. The resulting pellet was termed P1. The supernatant was saved and combined with the two subsequent supernatants obtained from washing of the P1 pellet. The combined supernatant fractions were centrifuged, resulting in the P2 pellet. After further incubation and centrifuging, this pellet was resuspended in assay buffer to a protein concentration of approximately 2 mg/ml. The membrane preparation was quickly frozen in a bath solution of dry ice and 2-methylbutane (Sigma Chemical Co., St. Louis, Mo.), then stored at −80° C. for no more than 2 weeks. Prior to performing a binding assay an aliquot of frozen membrane was rapidly thawed and protein values determined by the method of Bradford (1976).
Binding was initiated by the addition of 150•g of P2 membrane to test tubes containing 1 nM of [^3H] CP 55,940 (79 Ci/mmol) and a sufficient quantity of buffer to bring the total incubation volume to 1 ml. […] Following incubation at 30° C. for 1 hr, binding was terminated by addition of ice cold buffer and vacuum filtration through pretreated filters in a 12-well sampling manifold (Millipore, Bedford, Mass.). After washing, filters were placed into plastic scintillation vials (Packard, Downer Grove, Ill.) and shaken. The quantity of radioactivity present was determined by liquid scintillation spectrometry.
(§2) In addition, multiple linear regression was used to calculate the overall degree of relationship between CB1 binding affinity and potency in the mouse measures for all active cannabinoids. […] Ki values for CB1 and CB2 binding were obtained from Scatchard displacement analysis as determined via EBDA program of the KELL software package (Biosoft, Milltown, N.J.).
Background: In a radioligand displacement assay an active substance lowers the binding of a labelled ligand.

For assay [2], the target named is T2, CB2 receptor (Homo sapiens, UniProt P34972).
T2 construct: expressed in transfected cells
T2 sequence (P34972 whole entry): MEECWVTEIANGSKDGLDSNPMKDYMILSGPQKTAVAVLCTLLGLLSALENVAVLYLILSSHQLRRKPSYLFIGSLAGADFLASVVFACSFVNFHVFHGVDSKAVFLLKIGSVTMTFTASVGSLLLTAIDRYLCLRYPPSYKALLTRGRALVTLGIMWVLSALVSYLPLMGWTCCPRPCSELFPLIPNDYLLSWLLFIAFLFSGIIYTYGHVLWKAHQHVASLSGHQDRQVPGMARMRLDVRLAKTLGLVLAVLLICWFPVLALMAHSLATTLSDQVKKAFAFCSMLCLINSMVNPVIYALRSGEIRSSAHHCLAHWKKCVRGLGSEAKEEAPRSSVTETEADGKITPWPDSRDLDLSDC
Briefly: CB2 binding procedure, displacement of [3H]CP-55,940 from membranes of transfected CHO cells. The note with it: for CB1/CB2: ratio of CB1 Ki to CB2 Ki; for Ki: Table 6, read-out: CB2 KI. The method, then:
Membranes for CB2 binding were obtained from CHO cells. The transfected cell line was maintained in Dublecco's Modified Eagle Medium (Gibco BRL, Grand Island, N.Y.) with 10% fetal clone II (HyClone Laboratories, Inc., Logan, Utah) plus 0.3 to 0.5 mg/ml G418 (to maintain selective pressure) under 5% CO2 at 37% C. Cells were harvested with 1 mM EDTA in phosphate-buffered saline and were centrifuged at 1000×g for 5 min at 4% C. The supernatant was saved and the P1 pellet was resuspended in centrifugation buffer. Homogenization and centrifugation were repeated twice and the combined supernatant fractions were centrifuged at 40,000×g for 30 min at 4% C. The P2 pellet was resuspended in centrifugation buffer 2 (Tris HCl, 50 mM; EDTA, 1 mM; and MgCl2, 3 mM, pH 7.4) to a protein concentration of approximately 2 mg/ml. Protein concentrations were determined by the method of Bradford (1976) using Bio-Rad Protein Assay (Bio-Rad, Richmond, Calif.) and BSA standards (fatty acid free, Sigma Chemical Co., St. Louis, Mo.). The membrane preparation was divided into amounts convenient for binding assays and frozen rapidly in dry ice and stored at −80% C.
Binding was initiated by the addition of 50•g of quickly thawed P2 membranes to test tubes containing [^3H]CP-55,940 (final reaction concentration 0.5 nM), an appropriate concentration of unlabeled CP-55,940 or test drug, and sufficient quantity of assay buffer (50 mM Tris-HCl, 1 mM EDTA, 3 mM MgCl2, 5 mg/ml bovine serum albumin, pH 7.4) to bring the total incubation volume to 0.5 ml. Concentration of [^3H]CP-55,940 in saturation studies ranged from 50 to 10,000 pM. […] CP-55,940 and all cannabinoid analogs were-prepared by suspension in assay buffer from a 1 mg/ml ethanolic stock without evaporation of the ethanol (final concentration of no more than 0.4%). In competition studies, analog concentrations ranged from 0.1 nM to 10•M. After incubation at […] for 1 hr, binding was terminated by the addition of 2 ml of ice-cold wash buffer (50 mM Tris-HCl and 1 mg/ml BSA) and vacuum filtration through pre-treated filters in a 12-well sampling manifold (Millipore, Bedford, Mass.). Reaction vessels were washed once with 2 ml of ice-cold wash buffer. Filters were placed into 7-ml plastic scintillation vials (RPI Corp., Mount Prospect, Ill.) with 4 ml of Budget-Solve (RPI Corp.). After shaking for 30 min, the radioactivity present was determined by liquid scintillation spectrometry. Three reaction vessels were used for each drug concentration in each assay. The results represent the combined data of three independent experiments. All assays were performed in siliconized test tubes, which were prepared by air drying (12 hr) inverted borosilicate tubes after two rinses with a 0.1% solution of AquaSil (Pierce, Rockford, Ill.). The GF/C glass-fiber filters (2.4 cm, Baxter, McGaw Park, Ill.) were pre-treated in a 0.1% solution of pH 7.4 polyethylenimine (Sigma Chemical Co.) for at least 6 hr.
as §2

Assay [3] relates to male ICR mice. The experiment in a line: Tail-flick antinociception (TF, % MPE) in mice, i.v. The format is in vivo, mouse. The note with it: @ 30 mg/kg. On the procedure:
as §1
(§3) Measurement of spontaneous activity in mice occurred in standard activity chambers interfaced with a Digiscan Animal Activity Monitor (Omnitech Electronics, Inc., Columbus, Ohio). A standard tail-flick apparatus and a digital thermometer (Fisher Scientific, Pittsburgh, Pa.) were used to measure antinociception and rectal temperature, respectively.
(§4) Resorcinols were synthesized in our labs (Organix, Inc., Woburn, Mass.) according to the procedure specified below and were suspended in a vehicle of absolute ethanol, Emulphor-620 (Rhone-Poulenc, Inc., Princeton, N.J.), and saline in a ratio of 1:1:18. Drugs were administered to the mice intravenously (i.v.) in the tail vein at a volume of 0.1 ml/10 g.
(§5) Prior to testing in the behavioral procedures, mice were acclimated to the experimental setting (ambient temperature 22-24° C.) overnight. Pre-injection control values were determined for rectal temperature and tail-flick latency (in sec). Five min after i.v. injection with drug or vehicle, mice were placed in individual activity chambers and spontaneous activity was measured for 10 min. […] Tail-flick latency was measured at 20 min post-injection. Maximum latency of 10 sec was used. Antinociception was calculated as percent of maximum possible effect {% MPE=[(test−control latency)/(10-control)]×100}. Control latencies typically ranged from 1.5 to 4.0 sec. At 30 min post-injection, rectal temperature was measured. This value was expressed as the difference between control temperature (before injection) and temperatures following drug administration (° C.). Different mice (n=5-6 per dose) were tested for each dose of each compound. Each mouse was tested in each of the 3 procedures.
(§6) Based on data obtained from numerous previous studies with cannabinoids, maximal cannabinoid effects in each procedure were estimated as follows: 90% inhibition of spontaneous activity, 100% MPE in the tail flick procedure, and −6° C. change in rectal temperature. ED50's were defined as the dose at which half maximal effect occurred. For drugs that produced one or more cannabinoid effect, ED50's were calculated separately using least-squares linear regression on the linear part of the dose-effect curve for each measure in the mouse tetrad, plotted against log10 transformation of the dose. For the purposes of potency comparison, potencies were expressed as μmol/kg.

In assay [4] the test system is male ICR mice. Briefly: Change in rectal temperature (RT) in mice, i.v. The assay is classed as in vivo, mouse. The note with it: for R.T. effect at dose: @ 30 mg/kg. On the procedure:
as §1, §3, §4, §5, §6

As for `CCCCCCC(C)(C)c1cc(O)c(C2CCSCC2)c(O)c1` [O-1425], the “fold decrease in CB1 affinity” value in assay [1] (compared to O-1422) was 14 fold. For the same molecule, the “fold decrease in CB2 affinity” value in assay [2] (compared to O-1422) came out at 8 fold. The CB1/CB2 in assay [2] stood at 13.
For the molecule `CCCCCCC(C)(C)c1cc(OC)c(C2(O)CC(=O)CC(C)C2)c(OC)c1` (centres unmarked) [O-2123, 3-[4-(1,1-Dimethyl-heptyl)-2,6-dimethoxy-phenyl]-3-hydroxy-5-methyl-cyclohexanone], the inhibition constant Ki in assay [1] worked out at 7330 ± 117 nM. Also, in assay [2], the CB1/CB2 came to 14.
Turning to `C=C(C)[C@@H]1CCC(C)=CC1c1c(O)cccc1O` (single isomer, unassigned; (-)) [O-1847, (-)-2-(3-3,4-trans-p-menthadien-(1,8)-yl)-resorcinol], in assay [1], the Ki is over 10000 nM.
`COc1cc(C)cc(OC)c1C1(O)CCCCC1` [O-2298, 1-(2,6-Dimethoxy-4-methyl-phenyl)-cyclohexanol]: the Ki in assay [1] and in assay [2] was over 10000 nM each time.
Take `CCCCCCc1ccc(O)c(C2CCCCC2)c1O` [O-2010, 2-Cyclohexyl-4-hexyl resorcinol]: the “T.F. % effect at dose” value in assay [3] (Table 6) turned out to be 9.0%@ 30.
As to `CCCCCCC(C)(C)c1cc(OC)c(C2(O)CCCC(C)C2)c(OC)c1` (single isomer, unassigned; isomer 1) [O-1966A, 1-[4-(1,1-Dimethyl-heptyl)-2,6-dimethoxy-phenyl]-3-methyl-cyclohexanol isomer 1], in assay [4] (Table 6, 30 mg/kg), the “R.T. effect at dose” value was 0.5 @ 30 °C. Moreover, in assay [2], the CB1/CB2 was 220.
Take `CCCCCCC(C)(C)c1cc(OC)c(C2(O)CCC[C@@H](C)C2)c(OC)c1` (stereo in doubt) [compound 2137, 1-[4-(1,1-Dimethyl-heptyl)-2,6-dimethoxy-phenyl]-3-methyl-cyclohexanol]: the Ki in assay [1] was 2670 ± 145 nM; in assay [2], 11 ± 2.18 nM.
In the case of `CCCCCCC(C)(C)c1ccc(-c2cc(C)ccc2C(C)C)c(O)c1` [O-1376, 3-1′,1′-Dimethylhepty-6-(2-isopropyl-5-methylphenyl)phenol], the ED50 in assay [4] (Mus musculus, iv, 95% confidence limits in parentheses, read-out: ED50 RT (rectal temperature)) was 23 µmol/kg. Further, in assay [2], the Ki amounted to 2.63 ± 0.36 nM and the CB1/CB2 is 11.
Turning to `CCCCCCC(C)(C)c1cc(O)c(C2C3CC4CC(C3)CC2C4)c(O)c1` (centres unmarked) [O-1660, 2-(2-Adamantanyl)-5-(1′,1′-di-methylheptyl)-resorcinol], the Ki in assay [1] came out at 7.5 ± 1.2 nM. In assay [2], the Ki stood at 3.16 ± 0.81 nM and the CB1/CB2 stood at 2.
Take `C=C(C)[C@@H]1CCC(C)=CC1c1c(C)cc(O)cc1O` (single isomer, unassigned; (-)) [O-1602]: the Ki in assay [1] and in assay [2] was over 10000 nM each time. Moreover, the “R.T. effect at dose” value in assay [4] (Table 6) is 0.3 @ 30 °C. Besides, the inhibition in vivo at 30 mg/kg in assay [3] (Mus musculus, iv, Table 6, read-out: T.F. % effect at dose) was found to be 0%.
With `COc1cc(C)cc(OC)c1C1CCCCC1` [O-2299, 2-Cyclohexyl-1,3-dimethoxy-5-methylbenzene], the Ki in assay [1] and in assay [2] was over 10000 nM each time.
As to `CCCCCCC(C)(C)c1cc(OC)c(C2(O)CCCC(C)C2)c(OC)c1` (single isomer, unassigned; isomer 2) [O-1967B, 1-[4-(1,1-Dimethyl-heptyl)-2,6-dimethoxy-phenyl]-3-methyl-cyclohexanol isomer 2], the “R.T. effect at dose” value in assay [4] (Table 6, 30 mg/kg) was 0 @ 30 °C. The “T.F. % effect at dose” value in assay [3] (Table 6, 30 mg/kg) is given as 8.2% @30. For the same molecule, the CB1/CB2 in assay [2] is given as 15.
`C=C(C)[C@@H]1CCC(C)=CC1c1c(O)c(I)c(C)c(I)c1O` (single isomer, unassigned; (-)) [O-1868, (-)-2-(3-3,4-trans-p-menthadien-(1,8)-yl)-1,6-dipdoorcinol]: in assay [1], the Ki is over 10000 nM.
`CCCCCCC(C)(C)c1cc(O)c(C2CCCC(C)C2)c(O)c1` (single isomer, unassigned) [O-1798B, 2-(3-Methylcyclohexyl)-5-(1′,1′-dimethylheptyl)-resorcinolisomer B]: the Ki in assay [1] amounted to 4.33 ± 0.58 nM. For the same molecule, in assay [2], the CB1/CB2 worked out at 8.
In the case of `CCCCCCC(C)(C)c1cc(OC)c(C2CCCC(C)C2)c(OC)c1` (centres unmarked) [O-1999, 5-(1,1-Dimethyl-heptyl)-1,3-dimethoxy-2-(3-methyl-cyclohexyl)-benzeno], in assay [2] (compared to O-1657), the “fold reduction in affinity for CB2 receptors” value is listed as about 600 fold.
For the molecule `CCCC(C)(C)c1cc(O)c(C2CCCC(C)C2)c(O)c1` (centres unmarked) [O-1890, 2-(3-Methylcyclohexyl)-5-(1′,1′-dimethylbutyl)-resorcinol], the CB1/CB2 in assay [2] is given as 7.
On to `CCCCCCC(C)(C)c1cc(OC)c(C2(O)CC(C)CC(O)C2)c(OC)c1` (centres unmarked) [O-2121], for which the CB1/CB2 in assay [2] stood at 20.
For `C=C(C)[C@@H]1CCC(C)=CC1c1ccc(O)cc1O` (single isomer, unassigned; (-)) [O-1848, (-)-4-(3-3,4-trans-p-menthadien-(1,8)-yl)-resorcinol], the Ki in assay [1] was over 10000 nM.
